Reference: ChEMBL document CHEMBL5385873, “Analogues of natural products yaequinolones as potential inflammatory inhibitors: Design, synthesis and biological evaluation” (Eur J Med Chem, 2023)
Activity calls are given as the source filed them. No cut-off for these calls is given here.

What was measured:
Format in all cases: functional, cell-based
RAW264.7 [1] = experiment: Cytotoxicity against mouse RAW264.7 cells assessed as reduction in cell viability at <50 uM incubated for 24 hrs by MTT assay
RAW264.7 [2] = experiment: Antiinflammatory activity in mouse RAW264.7 cells assessed as inhibition of LPS-induced NO production at 1 uM incubated for 24 hrs
RAW264.7 [3] = experiment: Antiinflammatory activity in mouse RAW264.7 cells assessed as inhibition of LPS-induced NO production at 0.1 uM incubated for 24 hrs
RAW264.7 [4] = experiment: Antiinflammatory activity in mouse RAW264.7 cells assessed as inhibition of LPS-induced NO production at 0.05 uM incubated for 24 hrs
RAW264.7 [5] = experiment: Antiinflammatory activity in mouse RAW264.7 cells assessed as inhibition of LPS-induced TNF-alpha expression at 0.1 uM measured after 24 hrs by ELISA method
RAW264.7 [6] = experiment: Antiinflammatory activity in mouse RAW264.7 cells assessed as reduction in LPS-induced IL-6 level at 0.05 uM measured after 24 hrs by ELISA method
RAW264.7 [7] = experiment: Antiinflammatory activity in mouse RAW264.7 cells assessed as inhibition of LPS-induced NO production at 2 uM incubated for 24 hrs
RAW264.7 [8] = experiment: Cytotoxicity against mouse RAW264.7 cells assessed as reduction in cell viability at 2 to 10 uM incubated for 24 hrs by MTT assay; conditions: dose 2-10 µM
RAW264.7 [9] = experiment: Cytotoxicity against mouse RAW264.7 cells assessed as reduction in cell viability at 10 uM incubated for 24 hrs by MTT assay
RAW264.7 [10] = experiment: Antiinflammatory activity in mouse RAW264.7 cells assessed as inhibition of LPS-induced NO production at 0.2 uM incubated for 24 hrs
RAW264.7 [11] = experiment: Antiinflammatory activity in mouse RAW264.7 cells assessed as inhibition of LPS-induced TNF-alpha expression at 0.2 uM measured after 24 hrs by ELISA method
RAW264.7 [12] = experiment: Antiinflammatory activity in mouse RAW264.7 cells assessed as reduction in LPS-induced IL-6 level at 0.2 uM measured after 24 hrs by ELISA method

Row | Structure (SMILES) | Activity (RAW264.7 [1]) | Activity (RAW264.7 [2]) | Activity (RAW264.7 [3]) | Activity (RAW264.7 [4]) | further results
1 | CO[C@@H]1C(=O)Nc2ccc3c(c2[C@@]1(O)c1ccccc1)O[C@@](C)(CCC=C(C)C)C=C3 | inactive | – | – | – | –
2 | CO[C@@H]1C(=O)Nc2ccc3c(c2[C@@]1(O)c1ccccc1)O[C@](C)(CCC=C(C)C)C=C3 | inactive | Active | Active | inactive | Activity (RAW264.7 [5]): inactive; Activity (RAW264.7 [6]): Active
3 | CO[C@H]1C(=O)Nc2ccc3c(c2[C@]1(O)c1ccccc1)O[C@@](C)(CCC=C(C)C)C=C3 | inactive | – | – | – | –
4 | CO[C@H]1C(=O)Nc2ccc3c(c2[C@]1(O)c1ccccc1)O[C@](C)(CCC=C(C)C)C=C3 | inactive | Active | Active | inactive | Activity (RAW264.7 [5]): inactive; Activity (RAW264.7 [6]): Active
5 | COc1ccc([C@@]2(O)c3c(ccc4c3O[C@@](C)(CCC=C(C)C)C=C4)NC(=O)[C@@H]2OC)cc1 | inactive | – | – | – | –
6 | COc1ccc([C@@]2(O)c3c(ccc4c3O[C@](C)(CCC=C(C)C)C=C4)NC(=O)[C@@H]2OC)cc1 | inactive | – | – | – | –
7 | COc1ccc([C@]2(O)c3c(ccc4c3O[C@@](C)(CCC=C(C)C)C=C4)NC(=O)[C@H]2OC)cc1 | inactive | – | – | – | –
8 | COc1ccc([C@]2(O)c3c(ccc4c3O[C@](C)(CCC=C(C)C)C=C4)NC(=O)[C@H]2OC)cc1 | inactive | Active | – | inactive | –
9 | COc1ccc2c(c1)c(CC(=O)O)c(C)n2C(=O)c1ccc(Cl)cc1 | inactive | – | – | – | Activity (RAW264.7 [7]): inactive
10 | CO[C@@H]1C(=O)Nc2ccc3c(c2[C@@]1(O)c1ccc(Br)cc1)O[C@@](C)(CCC=C(C)C)C=C3 (racemic) | – | – | – | – | Activity (RAW264.7 [8]): Active
11 | CO[C@@H]1C(=O)Nc2ccc3c(c2[C@@]1(O)c1ccc(Br)cc1)O[C@](C)(CCC=C(C)C)C=C3 (racemic) | inactive | Active | – | inactive | –
12 | CO[C@@H]1C(=O)Nc2ccc3c(c2[C@@]1(O)c1ccc(C(F)(F)F)cc1)O[C@@](C)(CCC=C(C)C)C=C3 (racemic) | – | Active | Active | inactive | Activity (RAW264.7 [8]): Active; Activity (RAW264.7 [5]): inactive
13 | CO[C@@H]1C(=O)Nc2ccc3c(c2[C@@]1(O)c1ccc(C(F)(F)F)cc1)O[C@](C)(CCC=C(C)C)C=C3 (racemic) | inactive | Active | – | inactive | –
14 | CO[C@@H]1C(=O)Nc2ccc3c(c2[C@@]1(O)c1ccc(C)cc1)O[C@@](C)(CCC=C(C)C)C=C3 (racemic) | inactive | – | – | – | –
15 | CO[C@@H]1C(=O)Nc2ccc3c(c2[C@@]1(O)c1ccc(C)cc1)O[C@](C)(CCC=C(C)C)C=C3 (racemic) | inactive | – | – | – | –
16 | CO[C@@H]1C(=O)Nc2ccc3c(c2[C@@]1(O)c1ccc(Cl)cc1)O[C@@](C)(CCC=C(C)C)C=C3 (racemic) | inactive | – | – | – | –
17 | CO[C@@H]1C(=O)Nc2ccc3c(c2[C@@]1(O)c1ccc(Cl)cc1)O[C@](C)(CCC=C(C)C)C=C3 (racemic) | inactive | – | – | – | –
18 | CO[C@@H]1C(=O)Nc2ccc3c(c2[C@@]1(O)c1ccc(F)cc1)O[C@@](C)(CCC=C(C)C)C=C3 (racemic) | inactive | – | – | – | –
19 | CO[C@@H]1C(=O)Nc2ccc3c(c2[C@@]1(O)c1ccc(F)cc1)O[C@](C)(CCC=C(C)C)C=C3 (racemic) | inactive | – | – | – | –
20 | CO[C@@H]1C(=O)Nc2ccc3c(c2[C@@]1(O)c1ccc([N+](=O)[O-])cc1)O[C@@](C)(CCC=C(C)C)C=C3 (racemic) | inactive | Active | Active | inactive | Activity (RAW264.7 [5]): inactive; Activity (RAW264.7 [6]): Active
21 | CO[C@@H]1C(=O)Nc2ccc3c(c2[C@@]1(O)c1ccc([N+](=O)[O-])cc1)O[C@](C)(CCC=C(C)C)C=C3 (racemic) | inactive | Active | Active | inactive | Activity (RAW264.7 [5]): inactive
22 | CO[C@@H]1C(=O)Nc2ccc3c(c2[C@@]1(O)c1cccc(Br)c1)O[C@@](C)(CCC=C(C)C)C=C3 (racemic) | inactive | Active | Active | inactive | –

Row | Structure (SMILES) | Activity (RAW264.7 [1]) | Activity (RAW264.7 [2]) | Activity (RAW264.7 [3]) | Activity (RAW264.7 [4]) | further results
23 | CO[C@@H]1C(=O)Nc2ccc3c(c2[C@@]1(O)c1cccc(Br)c1)O[C@](C)(CCC=C(C)C)C=C3 (racemic) | inactive | Active | Active | inactive | Activity (RAW264.7 [5]): inactive; Activity (RAW264.7 [6]): Active
24 | COc1ccc([C@]2(O)c3c(ccc4c3O[C@@](C)(CCC=C(C)C)C=C4)N(C)C(=O)[C@H]2OC)cc1 (racemic) | inactive | Active | – | inactive | –
25 | COc1ccc([C@]2(O)c3c(ccc4c3O[C@@](C)(CCC=C(C)C)C=C4)N(Cc3ccc(Cl)cc3)C(=O)[C@H]2OC)cc1 (racemic) | inactive | Active | Active | inactive | –
26 | COc1ccc([C@]2(O)c3c(ccc4c3O[C@@](C)(CCC=C(C)C)C=C4)N(Cc3cccc(Br)c3)C(=O)[C@H]2OC)cc1 (racemic) | inactive | Active | Active | inactive | –
27 | COc1ccc([C@]2(O)c3c(ccc4c3O[C@@](C)(CCC=C(C)C)C=C4)N(Cc3cccc(C(F)(F)F)c3)C(=O)[C@H]2OC)cc1 (racemic) | inactive | – | – | – | –
28 | COc1ccc([C@]2(O)c3c(ccc4c3O[C@@](C)(CCC=C(C)C)C=C4)N(Cc3cccc(C)c3)C(=O)[C@H]2OC)cc1 (racemic) | inactive | – | – | – | –
29 | COc1ccc([C@]2(O)c3c(ccc4c3O[C@@](C)(CCC=C(C)C)C=C4)N(Cc3cccc(C)n3)C(=O)[C@H]2OC)cc1 (racemic) | inactive | Active | Active | inactive | –
30 | COc1ccc([C@]2(O)c3c(ccc4c3O[C@@](C)(CCC=C(C)C)C=C4)N(Cc3cccc(F)c3)C(=O)[C@H]2OC)cc1 (racemic) | inactive | Active | – | inactive | –
31 | COc1ccc([C@]2(O)c3c(ccc4c3O[C@@](C)(CCC=C(C)C)C=C4)N(Cc3ccccc3Cl)C(=O)[C@H]2OC)cc1 (racemic) | inactive | Active | – | inactive | –
32 | COc1ccc([C@]2(O)c3c(ccc4c3O[C@](C)(CCC=C(C)C)C=C4)N(C)C(=O)[C@H]2OC)cc1 (racemic) | inactive | Active | – | inactive | –
33 | COc1ccc([C@]2(O)c3c(ccc4c3O[C@](C)(CCC=C(C)C)C=C4)N(Cc3ccc(Cl)cc3)C(=O)[C@H]2OC)cc1 (racemic) | inactive | Active | – | inactive | –
34 | COc1ccc([C@]2(O)c3c(ccc4c3O[C@](C)(CCC=C(C)C)C=C4)N(Cc3cccc(Br)c3)C(=O)[C@H]2OC)cc1 (racemic) | – | Active | Active | inactive | Activity (RAW264.7 [8]): Active
35 | COc1ccc([C@]2(O)c3c(ccc4c3O[C@](C)(CCC=C(C)C)C=C4)N(Cc3cccc(C(F)(F)F)c3)C(=O)[C@H]2OC)cc1 (racemic) | inactive | Active | Active | inactive | –
36 | COc1ccc([C@]2(O)c3c(ccc4c3O[C@](C)(CCC=C(C)C)C=C4)N(Cc3cccc(C)c3)C(=O)[C@H]2OC)cc1 (racemic) | inactive | – | – | – | –
37 | COc1ccc([C@]2(O)c3c(ccc4c3O[C@](C)(CCC=C(C)C)C=C4)N(Cc3cccc(C)n3)C(=O)[C@H]2OC)cc1 (racemic) | inactive | – | – | – | –
38 | COc1ccc([C@]2(O)c3c(ccc4c3O[C@](C)(CCC=C(C)C)C=C4)N(Cc3cccc(F)c3)C(=O)[C@H]2OC)cc1 (racemic) | inactive | Active | Active | inactive | –
39 | COc1ccc([C@]2(O)c3c(ccc4c3O[C@](C)(CCC=C(C)C)C=C4)N(Cc3ccccc3Cl)C(=O)[C@H]2OC)cc1 (racemic) | inactive | – | – | – | –
40 | COc1cccc([C@]2(O)c3c(ccc4c3O[C@@](C)(CCC=C(C)C)C=C4)NC(=O)[C@H]2OC)c1 (racemic) | inactive | Active | – | inactive | –
41 | COc1cccc([C@]2(O)c3c(ccc4c3O[C@](C)(CCC=C(C)C)C=C4)NC(=O)[C@H]2OC)c1 (racemic) | inactive | Active | – | inactive | –
42 | CO[C@@H]1C(=O)Nc2ccccc2[C@@]1(O)c1ccccc1 (relative stereo) | – | – | – | – | Activity (RAW264.7 [9]): Active; Activity (RAW264.7 [10]): Active; Activity (RAW264.7 [11]): Active; Activity (RAW264.7 [12]): inactive
43 | COc1cccc2c1[C@@](O)(c1ccccc1)[C@H](OC)C(=O)N2 (relative stereo) | – | – | – | – | Activity (RAW264.7 [9]): Active; Activity (RAW264.7 [10]): Active; Activity (RAW264.7 [11]): Active; Activity (RAW264.7 [12]): Active
